Experimental findings from patent US20060014231A1, “Methods and compositions to promote bone homeostasis” (priority 2004, published 2006) are described below.

The target of test [1] is T1, NR1H3 (Homo sapiens, UniProt Q13133).
T1 construct: amplification of the complete open reading frame from ATG start codon to the stop codon of drugable genes; expressed in transfected cells; host or cells: primary human bone-marrow mesenchymal progenitor cells (MPCs), adenoviral transduction (Ad5-NR1H3 with Ad-hCAR)
T1 sequence (Q13133 1-447): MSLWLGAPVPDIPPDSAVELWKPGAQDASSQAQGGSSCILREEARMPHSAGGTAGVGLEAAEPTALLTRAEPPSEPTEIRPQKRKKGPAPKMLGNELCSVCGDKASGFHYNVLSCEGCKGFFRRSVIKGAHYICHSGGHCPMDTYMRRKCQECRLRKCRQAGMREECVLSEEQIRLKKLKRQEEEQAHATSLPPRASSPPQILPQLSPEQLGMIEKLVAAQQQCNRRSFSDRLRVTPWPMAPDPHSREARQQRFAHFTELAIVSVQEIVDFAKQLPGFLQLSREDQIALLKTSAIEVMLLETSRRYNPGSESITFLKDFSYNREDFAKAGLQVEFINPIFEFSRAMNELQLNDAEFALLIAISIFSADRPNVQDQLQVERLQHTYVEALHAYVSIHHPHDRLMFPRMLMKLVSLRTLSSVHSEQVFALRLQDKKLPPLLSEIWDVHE
Kind of test: Alkaline phosphatase (AP) assay in MPCs infected with Ad-NR1H3 and treated with ligand. Format: cell-based. How it is done:
Cellular AP activity is determined 6 days after the infection (or ligand addition—see below). The principle of the assays is depicted in FIG. 2. Mesenchymal stem cells derived from bone marrow are infected with the FLeXSelect™ cDNA library viruses in the presence of Ad5C15-hCAR or Ad5C20-hCAR virus. Six days after the start of infection or treatment with a ligand, endogenous alkaline phosphatase activity is measured following addition of 4-methylumbelliferyl […] (MUP) substrate.
The stocks of the Ad-control-viruses are generated in 96 well plates (control plate). The 2 μl volume corresponds to a theoretical MOI of 5000. Controls are: P1=Ad-BMP2; P2=Ad-H4-2; P3=Ad-H4-291; N1=Ad-LacZ; N2=Ad-empty; N3=Ad-eGFP. Up-regulation of alkaline phosphatase is read at 6 days post infection (6 dpi): 15 μl 4-Methylumbelliferyl-phosphate (MUP, Sigma) is added to each well, the plates are incubated for 15 min at 37° C. and monitored for AP activity using a fluorescence plate reader (Fluostar, BMG).
These dose-response curves are depicted in FIG. 5. […] MPCs are seeded on day 0 at 1000 cells per well of a 384 well plate and co-infected the next day using AdC51-hCAR (MOI 250) and different MOIs of Ad5-NR1H3 (MOI 12000, 4000, 1333, 444).
After 6 days, medium is removed and replaced with fresh medium containing the same concentrations of the compound GW3965. Readouts of AP activity are performed at several time points after the start of the experiment, typically after 7, 10 and 13 days.
After 6 days, medium is removed and replaced with fresh medium containing the same concentrations of the compound APD.

Test [2] relates to RUNX2. Kind of test: DN-RUNX2 assay: interference with up-regulation of AP activity in MPCs. It counts as cell-based, human. Particulars: Ad-NR1H3 + T0901317 plus Ad-DN-RUNX2 versus Ad-luciferase, 6 days post infection. The text has this:
Since the osteogenic activity of BMP2 is known to work through RUNX2, Ad-BMP2 and Ad-DN-RUNX2 viruses are used to develop the DN-RUNX2 assay. The human full-length RUNX2 cDNA is obtained by RT-PCR from total RNA extracted from MPCs. The 5′ part of the cDNA encoding amino acids 1-214 is obtained by PCR from the cloned RUNX2 cDNA and subcloned in an adenoviral adapter plasmid. The identity of the cloned fragment is verified by sequencing. This plasmid is used to generate an adenoviral stock, as described in WO 9964582.
MPCs are seeded at 1000 cells/well in a 384 well plate and infected the next day with adenoviruses encoding hCAR (MOI 250), Ad-BMP2 (MOIs 6000, 2000, 666) and one of Ad-DN-RUNX2 or Ad-luciferase (MOIs 2000 or 666). Alkaline phosphatase activity is read 6 days post infection.
The DN-RUNX2 assay is used to test the involvement of RUNX2 in the up-regulation of AP activity by NR5A2, NR1H3, and ESRRG. MPCs are seeded at 1000 cells/well in a 384 well plate and are infected the next day with adenoviruses encoding hCAR (MOI 250), Ad-BMP2, Ad-ESRRG, Ad-NR5A2, Ad-NR1H3 (MOIs 6000, 2000, 666) and one of Ad-DN-RUNX2 or Ad-luciferase (MOI 1000 or MOIs 2000 and 666) (see FIG. 19(C)). Alkaline phosphatase activity is read 6 days post infection and raw data are analysed.

As for `O=S(=O)(c1ccccc1)N(CC(F)(F)F)c1ccc(C(O)(C(F)(F)F)C(F)(F)F)cc1` [T0901317], in test [1] (Ad-NR1H3 MOI 2500 + T0901317 at different concentrations, 6 days), the “induction of AP activity in MPC isolates from 4 different donors” value is listed as “induce AP activity to similar extents”. In test [1] (MPCs infected with Ad-NR1H3, increasing ligand concentrations, MUP fluorescence readout), the “up-regulation of endogenous alkaline phosphatase (AP) activity” value was “dose-dependently increase”. Further, the “up-regulation of AP activity induced by NR1H3 in the presence of T0901317, under overexpression of DN-RUNX2” value in test [2] was “significantly reduces”.
